Assay results from patent US12018195B2, “Light-selective particles, related methods and related applications” (priority 2014, dated 2024).

Test system: macrophage cells
Excerpt: Positive control includes only growth media (FIG. A).
Positive control includes only growth media.

Which “cytotoxic effect on macrophage cells” value does the source give for CC(=O)[O-].CC(=O)[O-].[Zn+2] [Zn acetate] here?
Its value is “toxic impact”.
